Measurements as given in patent US20170037028A1 (BAYER PHARMA AKTIENGESELLSCHAFT, priority 2013, published 2017).

Biological target: T1, GLUT1 (Homo sapiens, UniProt P11166)
T1 sequence (P11166 1-492): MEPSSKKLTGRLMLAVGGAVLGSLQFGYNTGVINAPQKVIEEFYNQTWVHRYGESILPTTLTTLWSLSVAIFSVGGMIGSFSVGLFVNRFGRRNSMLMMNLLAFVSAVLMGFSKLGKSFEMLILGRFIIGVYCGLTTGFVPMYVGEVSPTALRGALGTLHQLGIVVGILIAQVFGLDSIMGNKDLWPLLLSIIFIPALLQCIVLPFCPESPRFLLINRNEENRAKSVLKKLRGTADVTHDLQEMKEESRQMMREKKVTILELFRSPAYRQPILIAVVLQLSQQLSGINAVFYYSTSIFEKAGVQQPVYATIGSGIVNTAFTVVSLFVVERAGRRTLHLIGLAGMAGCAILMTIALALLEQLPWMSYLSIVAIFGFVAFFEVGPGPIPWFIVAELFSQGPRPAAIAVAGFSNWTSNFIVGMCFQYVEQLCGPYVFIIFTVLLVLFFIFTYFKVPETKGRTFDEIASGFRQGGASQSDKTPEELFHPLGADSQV
Assay: Indirect measurement of GLUT1 activity by quantification of intracellular ATP levels (glucose induced ATP increase)
Assay type: cell-based
Parameters: endogenous in cells; host or cells: DLD1 or CHO-K1
Settings: read-out: IC50 regarding glucose induced ATP increase (GLUT1 inhibition)
Outline: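 Intracellular ATP was measured by CellTiter-Glo luminescence as an indirect readout of transport: glucose-driven for GLUT1, fructose-driven for GLUT2. DLD1 or CHO-K1 cells were used alongside an oxidative phosphorylation inhibitor. Beforehand, cells were held overnight in glucose-free 1% FCS medium to deplete ATP.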

Row | IC50 | Structure (SMILES)
1 | 69.1 nM | Cc1nn(Cc2ccc(C(N)=O)cc2)c(C)c1NC(=O)c1cc(C(N)=O)nc2cc(F)ccc12 [Example 1424]
2 | 56.3 nM | CNC(=O)c1ccc(Cn2nc(C)c(NC(=O)c3cc(C(N)=O)nc4cc(F)ccc34)c2C)cc1 [Example 1425]
3 | 80 nM | Cc1nn(Cc2ccc(C(=O)N(C)C)cc2)c(C)c1NC(=O)c1cc(C(N)=O)nc2cc(F)ccc12 [Example 1426]
4 | 12.3 nM | Cc1nn(Cc2ccc(C#N)cc2)c(C)c1NC(=O)c1cc(C(=O)N2CCC2)nc2cc(F)ccc12 [Example 1428]
5 | 29.4 nM | Cc1c(NC(=O)c2cc(C(N)=O)nc3cc(F)ccc23)c(C(F)(F)F)nn1Cc1ccc(S(C)(=O)=O)cc1 [Example 1429]
6 | 66.3 nM | Cc1c(NC(=O)c2cc(C(F)(F)F)nc3ccc(Br)cc23)c(C(F)(F)F)nn1Cc1ccc(S(C)(=O)=O)cc1 [Example 1430]
7 | 138 nM | COc1cc(C(=O)Nc2c(C(F)(F)F)nn(Cc3ccc(S(C)(=O)=O)cc3)c2C)c2ccccc2n1 [Example 1431]
8 | 27.4 nM | Cc1c(NC(=O)c2cc(C(N)=O)nc3ccccc23)c(C(F)(F)F)nn1Cc1ccc(S(C)(=O)=O)cc1 [Example 1432]
9 | 51.3 nM | Cc1c(NC(=O)c2cc(C(N)=O)nc3ccc(NCCN(C)C)cc23)c(C(F)(F)F)nn1Cc1ccc(C#N)cc1 [Example 1434]
10 | 2.8 nM | Cc1c(NC(=O)c2cc(C(N)=O)nc3cc(F)ccc23)c(C(F)(F)F)nn1Cc1ccc(F)cc1F [Example 1435]
11 | 63.2 nM | COc1cc(C(=O)Nc2c(C(F)(F)F)nn(Cc3ccc(F)cc3)c2C)c2ccccc2n1 [Example 1436]
12 | 13.9 nM | Cc1c(NC(=O)c2cc(C(N)=O)nc3cccc(F)c23)c(C(F)(F)F)nn1Cc1ccc(S(C)(=O)=O)cc1 [Example 1437]
13 | 3.1 nM | Cc1c(NC(=O)c2cc(C(N)=O)nc3cc(F)c(Cl)cc23)c(C(F)(F)F)nn1Cc1ccc(S(C)(=O)=O)cc1 [Example 1438]
14 | 1.9 nM | Cc1c(NC(=O)c2cc(C(N)=O)nc3ccc(Br)cc23)c(C(F)(F)F)nn1Cc1ccc(S(C)(=O)=O)cc1 [Example 1439]
15 | 5.4 nM | Cc1c(NC(=O)c2cc(C(N)=O)nc3cccc(F)c23)c(C(F)(F)F)nn1Cc1ccc(F)cc1F [Example 1440]
16 | 6.5 nM | Cc1c(NC(=O)c2cc(C(N)=O)nc3cc(F)c(Cl)cc23)c(C(F)(F)F)nn1Cc1ccc(F)cc1F [Example 1441]
17 | 2 nM | Cc1c(NC(=O)c2cc(C(N)=O)nc3ccc(Br)cc23)c(C(F)(F)F)nn1Cc1ccc(F)cc1F [Example 1442]
18 | 4 nM | Cc1c(NC(=O)c2cc(C(N)=O)nc3cccc(F)c23)c(C(F)(F)F)nn1Cc1ccc(F)c(F)c1 [Example 1443]
19 | 11.6 nM | Cc1c(NC(=O)c2cc(C(N)=O)nc3cc(F)c(Cl)cc23)c(C(F)(F)F)nn1Cc1ccc(F)c(F)c1 [Example 1444]
20 | 5.7 nM | Cc1c(NC(=O)c2cc(C(N)=O)nc3ccc(Br)cc23)c(C(F)(F)F)nn1Cc1ccc(F)c(F)c1 [Example 1445]
21 | 1.9 nM | COc1cccc(Cn2nc(C(F)(F)F)c(NC(=O)c3cc(C(N)=O)nc4cc(F)c(Cl)cc34)c2C)c1 [Example 1446]
22 | 23.2 nM | COc1cccc(Cn2nc(C(F)(F)F)c(NC(=O)c3cc(C(N)=O)nc4cc(F)ccc34)c2C)c1 [Example 1447]
23 | 6.9 nM | COc1cccc(Cn2nc(C(F)(F)F)c(NC(=O)c3cc(C(N)=O)nc4ccccc34)c2C)c1 [Example 1448]
24 | 18.7 nM | COc1cccc(Cn2nc(C(F)(F)F)c(NC(=O)c3cc(C(N)=O)nc4cccc(F)c34)c2C)c1 [Example 1449]

More lines, now with the values behind:

Row | Structure (SMILES) | IC50
25 | Cc1ccc2nc(C(N)=O)cc(C(=O)Nc3c(C)nn(Cc4ccc(F)cc4)c3C)c2c1 [Example 1377] | 1.7 nM
26 | Cc1c(NC(=O)c2cc(C(N)=O)nc3ccc(S(N)(=O)=O)cc23)c(C(F)(F)F)nn1Cc1ccc(C#N)cc1 [Example 1382] | 5370 nM
27 | Cc1nn(Cc2ccc(C(C)(C)C)cc2)c(C)c1NC(=O)c1cc(C(N)=O)nc2cc(F)ccc12 [Example 1383] | 140 nM
28 | CCc1nn(Cc2ccc(F)cc2)c(CC)c1NC(=O)c1cc(C(N)=O)nc2c(F)cccc12 [Example 1384] | 425 nM
29 | CCc1nn(Cc2ccc(F)cc2)c(CC)c1NC(=O)c1cc(C(N)=O)nc2cc(F)ccc12 [Example 1385] | 60.7 nM
30 | CCc1nn(Cc2ccc(F)cc2)c(CC)c1NC(=O)c1cc(C(N)=O)nc2cc(F)c(Cl)cc12 [Example 1386] | 13.6 nM
31 | CCc1nn(Cc2ccc(F)cc2)c(CC)c1NC(=O)c1cc(C(N)=O)nc2ccccc12 [Example 1387] | 36.7 nM
32 | CCc1nn(Cc2ccc(F)cc2)c(CC)c1NC(=O)c1cc(C(F)(F)F)nc2ccc(Br)cc12 [Example 1388] | 1530 nM
33 | Cc1c(NC(=O)c2cc(C(N)=O)nc3ccc(S(C)(=O)=O)cc23)c(C(F)(F)F)nn1Cc1ccc(C#N)cc1 [Example 1389] | 1930 nM
34 | COC(=O)c1cc(C(=O)Nc2c(C)nn(Cc3ccc(C#N)cc3)c2C)c2ccc(OC)cc2n1 [Example 1390] | 229 nM
35 | CCc1nn(Cc2ccc(F)cc2)c(CC)c1NC(=O)c1cc(C(N)=O)nc2cc(Cl)ccc12 [Example 1391] | 362 nM
36 | Cc1c(NC(=O)c2cc(C(N)=O)nc3cc(F)ccc23)c(C(F)(F)F)nn1Cc1ncccc1C#N [Example 1392] | 15.5 nM
37 | Cc1c(NC(=O)c2cc(C(N)=O)nc3ccccc23)c(C(F)(F)F)nn1Cc1ncccc1C#N [Example 1393] | 15 nM
38 | Cc1c(NC(=O)c2cc(C(N)=O)nc3ccc(N4CCN(C)CC4)cc23)c(C(F)(F)F)nn1Cc1ccc(C#N)cc1 [Example 1394] | 127 nM
39 | Cc1c(NC(=O)c2cc(C(N)=O)nc3cccc(F)c23)c(C(F)(F)F)nn1Cc1ncccc1C#N [Example 1395] | 12.6 nM
40 | Cc1c(NC(=O)c2cc(C(N)=O)nc3cc(F)ccc23)c(C(F)(F)F)nn1Cc1ccc(F)c(F)c1 [Example 1396] | 4.6 nM
41 | Cc1nn(Cc2ccc(C#N)cc2)c(C)c1NC(=O)c1cc(C(=O)NCCO)nc2cc(F)ccc12 [Example 1399] | 132 nM
42 | Cc1c(NC(=O)c2cc(C(=O)NCCN(C)C)nc3cc(F)ccc23)c(C(F)(F)F)nn1Cc1ccc(C#N)cc1 [Example 1400] | 2610 nM
43 | Cc1nn(Cc2ccc(C#N)cc2)c(C)c1NC(=O)c1cc(C(=O)NCCN(C)C)nc2cc(F)ccc12 [Example 1401] | 1240 nM
44 | Cc1nn(Cc2ccc(C#N)cc2)c(C)c1NC(=O)c1cc(C(=O)NCCN2CCOCC2)nc2cc(F)ccc12 [Example 1402] | 238 nM

Row | Structure (SMILES) | IC50
45 | Cc1c(NC(=O)c2cc(C(=O)NCCO)nc3cc(F)ccc23)c(C(F)(F)F)nn1Cc1ccc(C#N)cc1 [Example 1403] | 245 nM
46 | Cc1nn(Cc2ccc(C(C)C)cc2)c(C)c1NC(=O)c1cc(C(N)=O)nc2cc(F)ccc12 [Example 1404] | 3.8 nM
47 | Cc1nn(Cc2ccc(C(C)C)cc2)c(C)c1NC(=O)c1cc(C(N)=O)nc2ccccc12 [Example 1405] | 8.2 nM
48 | Cc1c(NC(=O)c2cc(C(N)=O)nc3cc(F)ccc23)c(C(F)(F)F)nn1Cc1ccc(C(C)C)cc1 [Example 1406] | 119 nM
49 | Cc1c(NC(=O)c2cc(C(N)=O)nc3ccccc23)c(C(F)(F)F)nn1Cc1ccc(C(C)C)cc1 [Example 1407] | 28.7 nM
50 | Cc1nn(Cc2ncccc2C#N)c(C)c1NC(=O)c1cc(C(N)=O)nc2ccc(Br)cc12 [Example 1408] | 4.9 nM
51 | Cc1nn(Cc2ncccc2C#N)c(C)c1NC(=O)c1cc(C(N)=O)nc2cc(F)ccc12 [Example 1409] | 11.1 nM
52 | Cc1nn(Cc2ncccc2C#N)c(C)c1NC(=O)c1cc(C(N)=O)nc2cccc(F)c12 [Example 1410] | 30.6 nM
53 | Cc1nn(Cc2ncccc2C#N)c(C)c1NC(=O)c1cc(C(N)=O)nc2cc(F)c(Cl)cc12 [Example 1411] | 3.2 nM
54 | CCc1ccc(Cn2nc(C(F)(F)F)c(NC(=O)c3cc(C(N)=O)nc4ccccc34)c2C)cc1 [Example 1413] | 1.1 nM
55 | CCc1ccc(Cn2nc(C(F)(F)F)c(NC(=O)c3cc(C(N)=O)nc4ccc(Br)cc34)c2C)cc1 [Example 1414] | 0.8 nM
56 | CCc1ccc(Cn2nc(C(F)(F)F)c(NC(=O)c3cc(C(N)=O)nc4cc(F)c(Cl)cc34)c2C)cc1 [Example 1415] | 3.3 nM
57 | Cc1nn(Cc2ccncn2)c(C)c1NC(=O)c1cc(C(F)(F)F)nc2ccc(Br)cc12 [Example 1416] | 97 nM
58 | Cc1nn(Cc2ccncn2)c(C)c1NC(=O)c1cc(C(N)=O)nc2ccccc12 [Example 1417] | 164 nM
59 | COc1cc(C(=O)Nc2c(C#N)nn(Cc3ccc(F)cc3)c2C)c2ccccc2n1 [Example 1418] | 34.1 nM
60 | Cc1nn(Cc2ccc(C(=O)N3CCC3)cc2)c(C)c1NC(=O)c1cc(C(N)=O)nc2cc(F)ccc12 [Example 1419] | 24.6 nM
61 | Cc1nn(Cc2ccc(C(=O)NCCO)cc2)c(C)c1NC(=O)c1cc(C(N)=O)nc2cc(F)ccc12 [Example 1420] | 354 nM
62 | COCCNC(=O)c1ccc(Cn2nc(C)c(NC(=O)c3cc(C(N)=O)nc4cc(F)ccc34)c2C)cc1 [Example 1421] | 39 nM
63 | Cc1nn(Cc2ccc(C(=O)NCCN(C)C)cc2)c(C)c1NC(=O)c1cc(C(N)=O)nc2cc(F)ccc12 [Example 1422] | 7110 nM
64 | Cc1nn(Cc2ccc(C(=O)O)cc2)c(C)c1NC(=O)c1cc(C(N)=O)nc2cc(F)ccc12 [Example 1423] | 29.6 nM
